The source of these data is PubChem BioAssay (NCI).

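Exposure lasted 48 hours, with cells grown in 96-well plates and compounds tested at five concentrations. Here, GI50 denotes the concentration required for 50% inhibition of growth. TGI: total growth inhibition.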

Some test systems named below: M14 melanoma; RXF-631 renal; LXFL 529 NSCLC; M19-MEL melanoma; HOP-92 NSCLC; SNB-78 CNS; U251 CNS; DMS 273 small cell lung.
What all share (test): NCI tumour cell line growth inhibition, 48 h

`Cc1ccc(C2CC(c3ccc([N+](=O)[O-])cc3)=Nc3ccccc3S2)cc1` (stereo unspecified): the TGI was more than 100 µM in the assay on M14 melanoma, more than 100 µM in the assay with RXF-631 renal, 37.5 µM in the assay on LXFL 529 NSCLC and 45 µM in the assay with M19-MEL melanoma.

Take `CCC1=C(C)/C(=C/c2[nH]c(C(Br)Br)c(CC)c2C)N=C1C(Br)Br`: the TGI is more than 100 µM in the assay on M14 melanoma; more than 100 µM in the assay on HOP-92 NSCLC; more than 100 µM in the assay with SNB-78 CNS; 86.4 µM with U251 CNS; more than 100 µM in the assay on LXFL 529 NSCLC; 79.1 µM in the assay with M19-MEL melanoma.

On to `O=C(O)C1CCc2nnc(-c3ccccc3)n21` (stereo unspecified), for which the TGI in the assay on M14 melanoma, in the assay on DMS 273 small cell lung, in the assay with SNB-78 CNS, with U251 CNS, with RXF-631 renal and in the assay with LXFL 529 NSCLC was more than 100 µM each time. In addition, the TGI with M19-MEL melanoma is more than 100 µM.

On to `COc1c(C2=NC(C(C)C)CO2)ccc2ccccc12` (stereo unspecified), for which the TGI with M14 melanoma, in the assay with HOP-92 NSCLC, with DMS 273 small cell lung, in the assay on SNB-78 CNS, with RXF-631 renal and with LXFL 529 NSCLC was more than 100 µM in each case. This compound returned a TGI in the assay with M19-MEL melanoma of more than 100 µM.

As to `O=C1c2ccccc2C(=O)C2C1C1C(=O)c3ccccc3C(=O)C21` (stereo unspecified), the TGI in the assay on M14 melanoma, in the assay with HOP-92 NSCLC, in the assay on DMS 273 small cell lung, in the assay with U251 CNS, in the assay on RXF-631 renal and in the assay on LXFL 529 NSCLC was more than 100 µM each time. Moreover, the TGI in the assay with M19-MEL melanoma was more than 100 µM.

For `CC1(C)C(c2ccccc2)C12CCC1(C2=O)C(c2ccccc2)C1(C)C` (stereo unspecified), the TGI was 75.5 µM with M14 melanoma; 31.6 µM in the assay on HOP-92 NSCLC; 45.3 µM in the assay on DMS 273 small cell lung; 62.4 µM with SNB-78 CNS; 34.9 µM with U251 CNS; more than 100 µM in the assay on LXFL 529 NSCLC. The compound also showed a TGI with M19-MEL melanoma of 58.9 µM.

For `Cc1c(C(=O)CC(=O)C(=O)Nc2c(C(C)C)cccc2C(C)C)[n+](=O)c2ccccc2n1[O-]`, the TGI in the assay with M14 melanoma was 10.8 µM; with HOP-92 NSCLC, 35.1 µM; with DMS 273 small cell lung, 12.1 µM; with SNB-78 CNS, 41.3 µM; in the assay on U251 CNS, 10.7 µM; with RXF-631 renal it was 14.4 µM. Also, the TGI with LXFL 529 NSCLC came to 23.4 µM; with M19-MEL melanoma it was 4.87 µM.

Turning to `O=S1CSCS1` (stereo unspecified), the TGI in the assay with M14 melanoma, in the assay with HOP-92 NSCLC, in the assay on DMS 273 small cell lung, in the assay on SNB-78 CNS, in the assay on U251 CNS and in the assay on RXF-631 renal was more than 100 µM throughout. In addition, the TGI with LXFL 529 NSCLC and with M19-MEL melanoma was more than 100 µM throughout.

For `CCOC(=O)c1cc(/C=C/C(C)=C/C(=O)OC)oc1-c1ccccc1`, the TGI in the assay with M14 melanoma, in the assay with DMS 273 small cell lung, in the assay with U251 CNS and in the assay on M19-MEL melanoma was more than 100 µM each time.

Consider `O=C(c1ccccc1)C(c1ccccc1)C1(O)C(=O)Nc2ccccc21` (stereo unspecified), for which the TGI in the assay on M14 melanoma, in the assay with HOP-92 NSCLC, in the assay with DMS 273 small cell lung, with SNB-78 CNS, with RXF-631 renal and in the assay on LXFL 529 NSCLC was more than 100 µM in each case. This compound also had a TGI in the assay on M19-MEL melanoma of more than 100 µM.

Consider `CCCN(CCCN)/[N+]([O-])=N\O`, for which the TGI in the assay on M14 melanoma, in the assay on HOP-92 NSCLC, with DMS 273 small cell lung, in the assay on SNB-78 CNS, in the assay on U251 CNS and in the assay on RXF-631 renal was more than 100 µM each time. Moreover, the TGI with LXFL 529 NSCLC and in the assay with M19-MEL melanoma was more than 100 µM throughout.

For the compound `Cc1nc2ccccc2c(=O)n1/N=C(\N=Nc1cc(Cl)ccc1Cl)c1cccc(-c2ccco2)c1`, the TGI with M14 melanoma is more than 100 µM; in the assay with HOP-92 NSCLC it was 99.5 µM; with DMS 273 small cell lung, more than 100 µM; in the assay with U251 CNS, more than 100 µM; in the assay with RXF-631 renal, more than 100 µM; in the assay on M19-MEL melanoma, more than 100 µM.

As for `COc1cc(=O)oc(/C=C/C=O)c1C`, the TGI was 33.8 µM in the assay on M14 melanoma; 53.4 µM with HOP-92 NSCLC; 32.8 µM with DMS 273 small cell lung; 28.6 µM in the assay with U251 CNS; 27.9 µM in the assay with RXF-631 renal; 32.4 µM in the assay with LXFL 529 NSCLC. This compound also came in with a TGI in the assay with M19-MEL melanoma of 35.7 µM.

Turning to `COc1ccc(C2=Nc3ccccc3SC(C)C2)cc1` (stereo unspecified), the TGI in the assay on M14 melanoma, in the assay on HOP-92 NSCLC, with DMS 273 small cell lung, in the assay on SNB-78 CNS, with U251 CNS and in the assay with RXF-631 renal was more than 100 µM in each case. For the same compound, the TGI in the assay with LXFL 529 NSCLC and in the assay on M19-MEL melanoma was more than 100 µM throughout.

For the compound `CC(C)(C)N/N=C(\Cc1occc(=O)c1O)C(=O)Nc1ccc([N+](=O)[O-])cc1[N+](=O)[O-]`, the TGI in the assay on M14 melanoma, with HOP-92 NSCLC, in the assay on DMS 273 small cell lung, in the assay on SNB-78 CNS, with U251 CNS and in the assay on RXF-631 renal was more than 100 µM each time. Further, the TGI in the assay with LXFL 529 NSCLC and in the assay with M19-MEL melanoma was more than 100 µM in each case.

`[C-]#[O+].[Cl][Sn]([Cl])[Cl].[Cl][Sn]([Cl])[Cl].[Pt].c1ccc([PH+](c2ccccc2)c2ccccc2)cc1.c1ccc([PH+](c2ccccc2)c2ccccc2)cc1`: the GI50 with M14 melanoma was 30.7 µM; with HOP-92 NSCLC, 17.1 µM; in the assay with DMS 273 small cell lung, 46.1 µM; in the assay on SNB-78 CNS it was more than 100 µM; in the assay with U251 CNS it was 15.3 µM; with LXFL 529 NSCLC, 23.2 µM. In addition, the GI50 in the assay with M19-MEL melanoma is 41 µM. The TGI in the assay with M14 melanoma is more than 100 µM; in the assay with HOP-92 NSCLC, 46.8 µM; with DMS 273 small cell lung, more than 100 µM; with SNB-78 CNS, more than 100 µM; in the assay with U251 CNS, 42.5 µM; in the assay on LXFL 529 NSCLC it was 82.1 µM. This compound also displayed a TGI with M19-MEL melanoma of more than 100 µM.
